Article PMC8069897, “A Targeted-Covalent Inhibitor of 17β-HSD1 Blocks Two Estrogen-Biosynthesis Pathways: In Vitro (Metabolism) and In Vivo (Xenograft) Studies in T-47D Breast Cancer Models” (Cancers, 2021)

Molecular target: T1, 17β-hydroxysteroid dehydrogenase type 1 (17β-HSD1) (Homo sapiens, UniProt P14061)
T1 construct: gene HSD17B1
T1 sequence (P14061 2-328): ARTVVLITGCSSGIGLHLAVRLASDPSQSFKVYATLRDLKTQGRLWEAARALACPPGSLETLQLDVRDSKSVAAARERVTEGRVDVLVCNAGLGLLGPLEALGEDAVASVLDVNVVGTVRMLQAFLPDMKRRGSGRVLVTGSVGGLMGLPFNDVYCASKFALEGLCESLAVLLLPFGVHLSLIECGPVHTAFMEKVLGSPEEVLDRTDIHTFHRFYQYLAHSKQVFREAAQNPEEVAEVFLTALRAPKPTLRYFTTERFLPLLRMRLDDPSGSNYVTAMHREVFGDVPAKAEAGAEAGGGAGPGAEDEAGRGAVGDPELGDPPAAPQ
Test: inhibition of […]-DHEA to […]-5-diol conversion in intact T-47D cells (endogenous […]β-HSD1), TLC
Assay type: cell-based

C[C@]12CC[C@@H]3c4ccc(CCBr)cc4CC[C@H]3[C@@H]1C[C@H](Cc1cccc(C(N)=O)c1)[C@@H]2O [PBRM]
IC50: 0.77 µM
